Results on three compounds are retold here after US20140045847A1, “CRYSTALLINE FORM OF A SALT OF A MORPHOLINO SULFONYL INDOLE DERIVATIVE AND A PROCESS FOR ITS PREPARATION” (PIRAMAL ENTERPRISES LIMITED, priority 2011, published 2014).

Bounds are passed on as bounds.

In general, IC50 refers to the concentration that inhibits the measured activity by half.

One series relates to human tumor cell lines. Particulars: mesenchymal, epithelial and hematopoietic tumor cell lines; Carboni et al. 2009; cited from earlier work.
For a further series, the system named is pAkt. The series is described as follows: IGF-1R autophosphorylation assay (Western blot), pAkt. Format: cell-based, human. Particulars: 1 h treatment, IGF-1 50 ng/mL stimulation. Here is the method:
(§1) Cells were grown and maintained in a medium containing 10% FBS. Cells grown as subconfluent monolayer, were subjected to serum starvation by replacing the respective culture medium with plain medium (containing no serum) and incubated for about 16 h at 37° C. in 5% CO2 incubator. Serum starved cells were treated with compound I at different concentrations for 1 h at 37° C. in 5% CO2 incubator and stimulated with IGF-1 (50 ng/mL) for the last 5 minutes of treatment with Compound I. After stimulation cells were washed twice with cold 1×PBS, pH 7.2 and cell lysates were prepared using CelLytic™ M cell lysis reagent (Sigma) containing protease and phosphatase inhibitors. Estimation of the total protein content in each cell lysate was carried out using Bradford reagent. Equal amount of protein from each lysate was subjected to Sodium Dodecyl Sulphate-Polyacrylamide Gel Electrophoresis (SDS-PAGE) followed by Western blotting protocol using specific antibody to pIGF-1R, IGF-1Rβ, pAkt, Akt, Pp70S6, p70S6, Pp44/42, p44/42 and loading control, β-actin. Imaging was done with BIO-RAD Image-Lab Software. The band density was then estimated using the software Image J. From the band densities of the various proteins at different concentrations of Compound I, the IC50 concentrations for various proteins were calculated, and are enumerated in Table 3.
On the technique in general: In western blotting, separated proteins are transferred to a membrane and probed.

For a further series, the target named is T1, pIGF-1R (Homo sapiens, UniProt P08069).
T1 construct: endogenous in cells
As to the kind of experiment: IGF-1R autophosphorylation assay (Western blot), pIGF-1R. Particulars: 1 h treatment, IGF-1 50 ng/mL stimulation. The class given is cell-based. Here is the method: as §1

The nature of series [1]: Stability of the solid form under stress conditions. The class given is physicochemical.
The subject of a further series is Pp70S6. As to the kind of experiment: IGF-1R autophosphorylation assay (Western blot), Pp70S6. The class given is cell-based, human. Conditions: 1 h treatment, IGF-1 50 ng/mL stimulation. Here is the method: as §1
The next series concerns SK-ES cells. The series is described as follows: Anti-proliferative assay (CellTiter-Glo), SK-ES. Conditions: Homo sapiens, 72 h, 100 ng/mL IGF-1 without FCS. Format: cell-based. Here is the method: (§2) The cancer cell lines were seeded in triplicate (at density, from 3000-5000 cells/well depending on cell type) with 10% FCS in 180 μL of culture medium in tissue culture grade 96 well plates and allowed to recover for 24 h in humidified 5% CO2 incubator at 37±1° C. […] Compound I in crystalline form was used at concentration range of 0.1, 1, 3 and 10 μM and the plates were incubated for 72 h in humidified 5% CO2 incubator at 37±1° C. Control wells were treated with vehicle (DMSO). At the end of the incubation periods, the plates were assayed by the CellTiter-Glo® Luminescent Cell Viability assay protocol. Percent cytoxicity was calculated at the various drug concentrations. Graph for cytotoxicity vs. concentration of Compound I was plotted, and the IC50 values were determined
(§3) The CellTiter-Glo® Luminescent Cell Viability Assay is a homogeneous method to determine the number of viable cells in culture based on quantitation of the ATP present, which signals the presence of metabolically active cells. The amount of ATP is directly proportional to the number of cells present in culture
(§4) • 1. […] The luminescence is recorded using the POLARstar optima plate reader […] Values are IC50 in nM for different cell lines are provided for the crystalline form of Compound I in Table 4.
(In ATP-based viability assays light output follows the ATP content of the culture.)

Series [2] has as its target T2, intracellular kinase domain of human IGF-1R (GST fusion protein) (Homo sapiens, UniProt P08069).
T2 construct: intracellular kinase domain of human IGF-1R and expressed as GST fusion proteins; GST; made in house
As to the kind of experiment: In vitro IGF-1R kinase assay (HTRF). Format: biochemical. Particulars: ATP 20 μM, IGFRK 0.25 nM, read-out: IC50 IGF-1R enzyme. Here is the method: The in vitro kinase assays using IGF-1R kinase GST fusion proteins were conducted using a homogeneous time-resolved fluorescence (HTRF) format. Kinase reactions were carried out in a 384-well plate format in a final volume of 20 μL. The standard enzyme reaction buffer consisted of 50 mM Tris HCL (pH: 7.4), 1 mM EGTA, 10 mM MgCl2, 2 mM DTT, 0.01% Tween-20, IGF-1R/IR kinase enzyme, poly GT peptide substrate (Perkin Elmer [Ulight Glu-Tyr (4:1)]n) and ATP [concentration equivalent to Kmapp]. […] Europium cryptate—labeled antiphosphotyrosine antibody PY20 (5 μL) was added (final concentration of 2 nM) and the mixture was allowed to equilibrate for 1 hour at 23° C. followed by reading the plate in an Envision plate reader. […] The IC50 values for Compound I in both, the crystalline form and the amorphous form were determined by a four-parameter sigmoidal curve fit (Sigma plot or Graph pad) as represented in Table 2.
IGFRK enzyme used for the assay was intracellular kinase domain of human IGF-1R and expressed as GST fusion proteins using the baculovirus expression system and purified using glutathione—Sepharose column. […]
On the technique in general: Time-resolved FRET reads energy transfer from a long-lived donor to a nearby acceptor.

For a further series, the system named is A673 cells. As to the kind of experiment: Anti-proliferative assay (CellTiter-Glo), A673. Particulars: Homo sapiens; A673, 72 h, 100 ng/mL IGF-1 without FCS. The class given is cell-based. Here is the method:
as §2, §3, §4

A further series relates to HCT116 cells. The series is described as follows: Anti-proliferative assay (CellTiter-Glo), HCT116. The class given is cell-based. Conditions: Homo sapiens, HCT-116; HCT116, 72 h, 100 ng/mL IGF-1 without FCS. Here is the method:
as §2, §3, §4

Another series concerns RD-ES cells. As to the kind of experiment: Anti-proliferative assay (CellTiter-Glo), RD-ES. Format: cell-based. Conditions: Homo sapiens, 72 h, 100 ng/mL IGF-1 without FCS. Here is the method:
as §2, §3, §4

The test system of another series is MCF7 cells. The series is described as follows: Anti-proliferative assay (CellTiter-Glo), MCF7. Format: cell-based. Particulars: Homo sapiens; MCF7, 72 h, 100 ng/mL IGF-1 without FCS. Here is the method: as §2, §3, §4
For the next series, the system named is RD cells. As to the kind of experiment: Anti-proliferative assay (CellTiter-Glo), RD. The class given is cell-based. Conditions: Homo sapiens, 72 h, 100 ng/mL IGF-1 without FCS. Here is the method:
as §2, §3, §4

Setting [3] is: Homo sapiens, A673, 1 h, A673 cells.
[4] abbreviates: MCF7 cells, listed as Crystalline form.

T1 sequence (P08069 31-1367): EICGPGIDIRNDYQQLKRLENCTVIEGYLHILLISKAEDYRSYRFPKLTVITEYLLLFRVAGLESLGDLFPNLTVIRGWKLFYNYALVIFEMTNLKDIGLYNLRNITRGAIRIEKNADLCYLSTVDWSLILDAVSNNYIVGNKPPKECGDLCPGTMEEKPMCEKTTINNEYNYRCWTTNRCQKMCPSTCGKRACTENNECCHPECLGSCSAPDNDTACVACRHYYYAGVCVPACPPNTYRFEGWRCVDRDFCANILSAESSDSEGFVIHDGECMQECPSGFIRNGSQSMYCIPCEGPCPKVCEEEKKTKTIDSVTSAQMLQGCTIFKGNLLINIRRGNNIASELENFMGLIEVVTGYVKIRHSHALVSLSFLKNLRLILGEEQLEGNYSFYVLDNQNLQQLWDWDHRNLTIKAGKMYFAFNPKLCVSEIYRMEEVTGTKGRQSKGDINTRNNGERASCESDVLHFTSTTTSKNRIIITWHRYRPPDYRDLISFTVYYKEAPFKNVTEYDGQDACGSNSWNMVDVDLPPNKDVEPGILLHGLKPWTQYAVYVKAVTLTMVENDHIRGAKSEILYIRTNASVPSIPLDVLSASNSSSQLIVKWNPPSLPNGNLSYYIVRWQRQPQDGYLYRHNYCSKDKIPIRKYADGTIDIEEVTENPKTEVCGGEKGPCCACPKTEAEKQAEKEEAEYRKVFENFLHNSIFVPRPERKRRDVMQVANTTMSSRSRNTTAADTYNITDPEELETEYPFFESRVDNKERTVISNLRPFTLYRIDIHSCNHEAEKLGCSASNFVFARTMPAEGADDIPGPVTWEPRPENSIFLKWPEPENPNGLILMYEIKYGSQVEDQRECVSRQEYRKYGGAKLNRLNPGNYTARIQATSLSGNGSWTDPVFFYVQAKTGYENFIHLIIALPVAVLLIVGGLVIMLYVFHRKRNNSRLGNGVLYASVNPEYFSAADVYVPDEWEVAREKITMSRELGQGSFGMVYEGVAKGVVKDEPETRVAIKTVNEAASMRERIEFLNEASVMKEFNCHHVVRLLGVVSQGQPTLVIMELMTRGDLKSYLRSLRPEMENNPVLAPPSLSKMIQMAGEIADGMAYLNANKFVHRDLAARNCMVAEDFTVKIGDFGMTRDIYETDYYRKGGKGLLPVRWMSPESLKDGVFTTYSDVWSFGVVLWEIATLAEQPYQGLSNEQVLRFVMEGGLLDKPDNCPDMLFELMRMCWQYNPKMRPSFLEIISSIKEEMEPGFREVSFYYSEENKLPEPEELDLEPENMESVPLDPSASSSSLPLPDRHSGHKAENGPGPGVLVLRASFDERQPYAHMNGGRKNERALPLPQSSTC
T2 sequence (P08069 999-1274 limits assumed): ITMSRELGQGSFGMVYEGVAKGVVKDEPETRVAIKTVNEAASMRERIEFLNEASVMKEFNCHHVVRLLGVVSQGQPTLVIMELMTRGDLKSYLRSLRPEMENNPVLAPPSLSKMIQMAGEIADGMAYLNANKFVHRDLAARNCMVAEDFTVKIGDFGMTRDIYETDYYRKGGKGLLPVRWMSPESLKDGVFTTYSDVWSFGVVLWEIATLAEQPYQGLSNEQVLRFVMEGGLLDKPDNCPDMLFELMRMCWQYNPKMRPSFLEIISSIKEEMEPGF

In the case of `C[C@@]1(C(=O)Nc2ccc(F)nc2)CCCN1c1nc(Nc2cc(C3CC3)n[nH]2)c2cccn2n1` [BMS-754807], the “inhibition of growth of human tumor types in vitro” value in the series with human tumor cell lines is on record as “effectively inhibits the growth”.
Take `CCOC(=O)N1CCC(Nc2cc(Cl)cc3c(S(=O)(=O)N4CCO[C@H](COc5ccccc5)C4)c(C(N)=O)[nH]c23)CC1` [Compound I (amorphous form), (S)-ethyl 4-(2-carbamoyl-5-chloro-3-(2-(phenoxymethyl)morpholinosulfonyl)-1H-indol-7-ylamino)piperidine-1-carboxylate methane sulfonate]: the IC50 in the series on pAkt (Colo205 cells, listed as Amorphous form) was 620 nM; with pAkt (setting [3]) it was 260 nM; in the series with pAkt (MCF7 cells, listed as Amorphous form), 380 nM; against pIGF-1R (A673 cells), < 10 nM; at pIGF-1R (Colo205 cells) it was 400 nM; on pIGF-1R (MCF7 cells) it was 15 nM. The IC50 was found to be 450 nM in the series on Pp70S6 (setting [3]) and 680 nM in the series on Pp70S6 (Homo sapiens, MCF7, 1 h, MCF7 cells). Moreover, in series [1] (listed as amorphous form of Compound I), the “stability under stress conditions” value is reported as “unstable under stress conditions”.
Regarding `CCOC(=O)N1CCC(Nc2cc(Cl)cc3c(S(=O)(=O)N4CCO[C@H](COc5ccccc5)C4)c(C(N)=O)[nH]c23)CC1` [Compound I (crystalline form), (S)-ethyl 4-(2-carbamoyl-5-chloro-3-(2-(phenoxymethyl)morpholinosulfonyl)-1H-indol-7-ylamino)piperidine-1-carboxylate methane sulfonate], the IC50 with pAkt (A673 cells) was determined as 220 nM; in the series on pAkt (Colo205 cells, listed as Crystalline form) it was 23 nM; in the series with pAkt (setting [4]) it was 50 nM; with SK-ES cells, 450 nM; in series [2], 22 nM; in the series on A673 cells, 1800 nM. Also, the IC50 at pIGF-1R (A673 cells) is 30 nM; on pIGF-1R (Colo205 cells) it was 46 nM; in the series on HCT116 cells it was 900 nM; in the series with Pp70S6 (setting [4]), 460 nM; in the series with RD-ES cells, 250 nM; in the series with MCF7 cells, 160 nM. For the same compound, the IC50 in the series with RD cells worked out at 1400 nM. For the same compound, the “stability under stress conditions” value in series [1] (listed as crystalline form of Compound I) is “stable with reproducible pharmacological activity even under stress conditions”.
